Type in all cases: functional, organism-based
Experiment [1] concerns Mus musculus. The experiment can be described thus: Antiinflammatory activity in Swiss Webster mouse assessed as protection against carrageenan-induced paw edema at 30 ug/paw local peripheral administration and measured after 4 to 6 hrs. Particulars: dose 30.0 µg, time 4-6 hrs.
Experiment [2] has as its system Mus musculus. The experiment can be described thus: Antiinflammatory activity in Swiss Webster mouse assessed as protection against carrageenan-induced paw edema at 30 ug/paw local peripheral pretreatment with compound for 15 mins followed by carrageenan challenge and measured after 6 hrs. Particulars: dose 30.0 µg, time 375.0 min.
Experiment [3] concerns Mus musculus. The experiment can be described thus: Antiinflammatory activity in Swiss Webster mouse assessed as reversal of carrageenan-induced paw edema at 30 ug/paw local peripheral administration pretreated with carrageenan for 6 days followed by compound addition and measured 6 hrs post compound treatment. Particulars: dose 30.0 µg.
For experiment [4], the species on record is Mus musculus. The experiment can be described thus: Antiallodynic activity in Swiss Webster mouse assessed as protection against carrageenan-induced tactile allodynia at 30 ug/paw local peripheral pretreatment with compound for 15 mins followed by carrageenan challenge and measured after 6 hrs. The following applies: dose 30.0 µg, time 375.0 min.
Experiment [5] relates to Mus musculus. The experiment can be described thus: Antiallodynic activity in Swiss Webster mouse assessed as reversal of carrageenan-induced tactile allodynia at 30 ug/paw local peripheral administration pretreated with carrageenan for 6 days followed by compound addition and measured 6 hrs post compound treatment. Particulars: dose 30.0 µg.
Experiment [6] concerns Mus musculus. The experiment can be described thus: Antiinflammatory activity in Swiss Webster mouse assessed as protection against carrageenan-induced paw edema at 30 ug/paw, it. The following applies: dose 30.0 µg.
The species entered for experiment [7] is Mus musculus. The experiment can be described thus: Antiallodynic activity in Swiss Webster mouse assessed as protection against carrageenan-induced tactile allodynia at 30 ug/paw pretreated with flumazenil for 15 mins followed by compound addition and measured after 6 hrs. Particulars: dose 30.0 µg.
The subject of experiment [8] is Mus musculus. The experiment can be described thus: Antiallodynic activity in local peripheral dosed Swiss Webster mouse assessed as protection against carrageenan-induced tactile allodynia measured every 3 days for 15 days. The following applies: dose 3-30 µg, time 15.0 day.
Experiment [9] relates to Mus musculus. The experiment can be described thus: Antiinflammatory activity in local peripheral dosed Swiss Webster mouse assessed as protection against carrageenan-induced paw edema pretreated with compound for 15 mins followed by carrageenan challenge and measured after 6 hrs. The following applies: dose 1-30 µg, time 375.0 min.
Experiment [10] concerns Mus musculus. The experiment can be described thus: Antiallodynic activity in local peripheral dosed Swiss Webster mouse assessed as protection against carrageenan-induced tactile allodynia pretreated with compound for 15 mins followed by carrageenan challenge and measured after 6 hrs. The following applies: dose 1-30 µg, time 375.0 min.
The species entered for experiment [11] is Mus musculus. The experiment can be described thus: Antiallodynic activity in Swiss Webster mouse assessed as protection against carrageenan-induced tactile allodynia at 30 ug/paw pretreated with glibenclamide for 15 mins followed by compound addition and measured after 6 hrs. The following applies: dose 30.0 µg.
The subject of experiment [12] is Mus musculus. The experiment can be described thus: Antiallodynic activity in it dosed hyperglycemic Swiss Webster mouse model of neuropathic pain assessed as reversal of carrageenan-induced tactile allodynia measured after 6 hrs. Particulars: dose 3-30 µg.
For experiment [13], the species on record is Mus musculus. The experiment can be described thus: Antiallodynic activity in Swiss Webster mouse assessed as protection against carrageenan-induced tactile allodynia at 30 ug/paw pretreated with naloxone for 15 mins followed by compound addition and measured after 6 hrs. The following applies: dose 30.0 µg.
In experiment [14] the test system is Mus musculus. The experiment can be described thus: Antiinflammatory activity in Swiss Webster mouse assessed as protection against carrageenan-induced paw edema at 30 ug/paw pretreated with naloxone for 15 mins followed by compound addition and measured after 6 hrs. The following applies: dose 30.0 µg.
For experiment [15], the system named is Mus musculus. The experiment can be described thus: Antiinflammatory activity in Swiss Webster mouse assessed as protection against carrageenan-induced paw edema at 30 ug/paw pretreated with l-NAME for 15 mins followed by compound addition and measured after 6 hrs. The following applies: dose 30.0 µg.
Experiment [16] is filed under the species Mus musculus. The experiment can be described thus: Antiallodynic activity in Swiss Webster mouse assessed as protection against carrageenan-induced tactile allodynia at 30 ug/paw pretreated with methiothepin for 15 mins followed by compound addition and measured after 6 hrs. Particulars: dose 30.0 µg.
The species entered for experiment [17] is Mus musculus. The experiment can be described thus: Antiallodynic activity in Swiss Webster mouse assessed as protection against carrageenan-induced tactile allodynia at 30 ug/paw pretreated with l-NAME for 15 mins followed by compound addition and measured after 6 hrs. Particulars: dose 30.0 µg.
Experiment [18] is filed under the species Mus musculus. The experiment can be described thus: Antiallodynic activity in Swiss Webster mouse assessed as protection against carrageenan-induced tactile allodynia at 30 ug/paw pretreated with ODQ for 15 mins followed by compound addition and measured after 6 hrs. The following applies: dose 30.0 µg.
Experiment [19] has as its system Mus musculus. The experiment can be described thus: Antiinflammatory activity in Swiss Webster mouse assessed as protection against carrageenan-induced paw edema at 3 to 30 ug/paw local peripheral pretreatment with compound for 15 mins before carrageenan challenge and measured every 3 days for 15 days. The following applies: dose 3-30 µg, time 15.0 day.
Experiment [20] has as its system Mus musculus. The experiment can be described thus: Antiinflammatory activity in Swiss Webster mouse assessed as protection against carrageenan-induced paw edema at 30 ug/paw pretreated with glibenclamide for 15 mins followed by compound addition and measured after 6 hrs. Particulars: dose 30.0 µg.
Experiment [21] relates to Mus musculus. The experiment can be described thus: Antiinflammatory activity in Swiss Webster mouse assessed as protection against carrageenan-induced paw edema at 30 ug/paw pretreated with ODQ for 15 mins followed by compound addition and measured after 6 hrs. Particulars: dose 30.0 µg.
In experiment [22] the test system is Mus musculus. The experiment can be described thus: Antiallodynic activity in hyperglycemic Swiss Webster mouse model of neuropathic pain assessed as reversal of carrageenan-induced tactile allodynia at 30 ug/paw local peripheral administration and measured after 6 hrs. Particulars: dose 30.0 µg.
Experiment [23] is filed under the species Mus musculus. The experiment can be described thus: Antiallodynic activity in hyperglycemic Swiss Webster mouse model of neuropathic pain assessed as reversal of carrageenan-induced tactile allodynia at 30 ug/paw, it and measured after 6 hrs. Particulars: dose 30.0 µg.
The subject of experiment [24] is Mus musculus. The experiment can be described thus: Antiallodynic activity in it dosed Swiss Webster mouse assessed as protection against carrageenan-induced tactile allodynia.
The subject of experiment [25] is Mus musculus. The experiment can be described thus: Antiallodynic activity in local peripheral dosed hyperglycemic Swiss Webster mouse model of neuropathic pain assessed as reversal of carrageenan-induced tactile allodynia measured after 6 hrs. Particulars: dose 3-30 µg.
The subject of experiment [26] is Mus musculus. The experiment can be described thus: Antiinflammatory activity in Swiss Webster mouse assessed as protection against carrageenan-induced paw edema at 30 ug/paw pretreated with methiothepin for 15 mins followed by compound addition and measured after 6 hrs. The following applies: dose 30.0 µg.
In experiment [27] the test system is Mus musculus. The experiment can be described thus: Antiinflammatory activity in Swiss Webster mouse assessed as protection against carrageenan-induced paw edema at 30 ug/paw pretreated with flumazenil for 15 mins followed by compound addition and measured after 6 hrs. Particulars: dose 30.0 µg.

The structures appear in SMILES notation. Activity calls are given as the source filed them. The calls are words filed in the database; no cut-off is given here.

Take `O=C(O)Cc1ccccc1Nc1c(Cl)cccc1Cl`: the outcome with Mus musculus [1], in the experiment with Mus musculus [2] and in the experiment listed under Mus musculus [4] was Active. In addition, the result in the experiment on Mus musculus [3] and in the experiment with Mus musculus [5] was inactive.
For `C=C[C@@]1(C)[C@H]2OC(=O)C(=C)[C@H]([C@@H]2OC(=O)/C(C)=C\C)[C@H](OC(=O)C(C)C)[C@@H]1C(=C)C(=O)O`, the outcome in the experiment on Mus musculus [1], with Mus musculus [2], in the experiment with Mus musculus [3], in the experiment filed under Mus musculus [4], in the experiment on Mus musculus [5] and in the experiment with Mus musculus [22] was Active. Further, in the experiment listed under Mus musculus [23], the result was Active. The outcome in the experiment on Mus musculus [6], in the experiment listed under Mus musculus [7], in the experiment filed under Mus musculus [11], in the experiment filed under Mus musculus [13], with Mus musculus [14] and with Mus musculus [15] was inactive. The outcome in the experiment listed under Mus musculus [16], in the experiment filed under Mus musculus [17], in the experiment listed under Mus musculus [18], in the experiment with Mus musculus [19], in the experiment with Mus musculus [20] and with Mus musculus [21] was inactive. Moreover, the result in the experiment on Mus musculus [26] and with Mus musculus [27] was inactive. Besides, the Activity entry in the experiment with Mus musculus [8], in the experiment with Mus musculus [9], with Mus musculus [10], in the experiment on Mus musculus [12], in the experiment on Mus musculus [24] and in the experiment on Mus musculus [25] was “Dose-Dependent Effect” each time.
Turning to `CC(C)C[C@H](CN)CC(=O)O`, the outcome in the experiment with Mus musculus [22] was inactive. Further, in the experiment listed under Mus musculus [23], the outcome was Active.

The values are drawn from ChEMBL document CHEMBL4837182, “Pharmacological Analysis of the Anti-inflammatory and Antiallodynic Effects of Zinagrandinolide E from Zinnia grandiflora in Mice” (J Nat Prod, 2021).
